According to US20240124408A1 (Sanofi, priority 2020, published 2024):

Experiments:
pig TRPM8 = biological target: T1, pig TRPM8 (Sus scrofa, UniProt F1SM15); assay: In vitro pig TRPM8 fluorescence calcium flux assay (recombinant CHO cells, Fluo4-AM, FDSS6000); assay type: cell-based; conditions: recombinant CHO cells expressing pig TRPM8; menthol-related EC50, normalized to 100 μM menthol
T1 construct: expressed in transfected cells; host or cells: CHO (pcDNA5/FRT/TO vector; hygromycin B and blasticidin selection)
Protocol: (§1) In Vitro Pig and Human TRPM8 Fluorescence Calcium Flux Assays
(§2) For functional expression of TRPM8, the full-length cDNA encoding human (NM_024080) and pig (XM_001927892.1) TRPM8 sequences were subcloned into p658 and pcDNA5/FRT/TO mammalian expression vectors, respectively. Engineered recombinant CHO cell lines expressing human or pig TRPM8 were generated. Culture media was Ham-F12 with 10% FCS for both lines, and for the pig cell line only 400 μg/ml hygromycin B and 30 μg/mL blasticidin were added as selection antibiotics (all reagents were obtained from Invitrogen, Fisher Scientific). Cells were grown in culture flasks up to 80% confluence where they were harvested using accutase (Sigma, MO, USA) to detach the cells by enzymatic dissociation and either seeded directly into assay plates or cryopreserved for future use.
(§3) For calcium flux assays, cells were plated into clear base poly-D-lysine coated 384-well plates (BD Biosciences, NJ USA) at a density of 15,000 cells per well in appropriate culture medium and grown overnight. The following day, all medium was removed then the cells were incubated with 2 μM of Fluo4-AM Dye (Molecular Probes) prepared in complete HBSS assay buffer containing 20 mM HEPES, 0.1% BSA, and 2.5 mM probenecid at room temperature for one hour. Following incubation, plates were inserted into a FDSS6000 instrument (Hamamatsu, Photonics, Japan) instrument, where cells were challenged with compounds of the formula (at varying concentrations) and intracellular calcium was measured kinetically for 3 min after addition.
(§4) This protocol allowed the determination of an EC50 value, from the sixteen-point dose response data, for each compound of the formula tested. Maximal fluorescence intensity achieved upon addition of 100 μM menthol (stock solution prepared in ethanol from solid, Sigma-Aldrich) was exported from the FDSS and further analyzed using IDBS XLFit 5. Data were normalized to the average 100 μM menthol response (maximum control wells) included in each plate. The dose response curves from the average of wells for each data point were analyzed by using nonlinear regression of sigmoidal dose response (formula 205). Finally, the (menthol-related) EC50 values (Half maximal effective concentration) were calculated with the best-fit dose curve determined by IDBS XLFit 5 software.

human TRPM8 = biological target: T2, human TRPM8 (Homo sapiens, UniProt Q7Z2W7); assay: In vitro human TRPM8 fluorescence calcium flux assay (recombinant CHO cells, Fluo4-AM, FDSS6000); assay type: cell-based; conditions: recombinant CHO cells expressing human TRPM8; menthol-related EC50, normalized to 100 μM menthol
T2 construct: expressed in transfected cells; host or cells: CHO (p658 mammalian expression vector)
Protocol: as §1, §2, §3, §4

T2 sequence (Q7Z2W7 whole entry): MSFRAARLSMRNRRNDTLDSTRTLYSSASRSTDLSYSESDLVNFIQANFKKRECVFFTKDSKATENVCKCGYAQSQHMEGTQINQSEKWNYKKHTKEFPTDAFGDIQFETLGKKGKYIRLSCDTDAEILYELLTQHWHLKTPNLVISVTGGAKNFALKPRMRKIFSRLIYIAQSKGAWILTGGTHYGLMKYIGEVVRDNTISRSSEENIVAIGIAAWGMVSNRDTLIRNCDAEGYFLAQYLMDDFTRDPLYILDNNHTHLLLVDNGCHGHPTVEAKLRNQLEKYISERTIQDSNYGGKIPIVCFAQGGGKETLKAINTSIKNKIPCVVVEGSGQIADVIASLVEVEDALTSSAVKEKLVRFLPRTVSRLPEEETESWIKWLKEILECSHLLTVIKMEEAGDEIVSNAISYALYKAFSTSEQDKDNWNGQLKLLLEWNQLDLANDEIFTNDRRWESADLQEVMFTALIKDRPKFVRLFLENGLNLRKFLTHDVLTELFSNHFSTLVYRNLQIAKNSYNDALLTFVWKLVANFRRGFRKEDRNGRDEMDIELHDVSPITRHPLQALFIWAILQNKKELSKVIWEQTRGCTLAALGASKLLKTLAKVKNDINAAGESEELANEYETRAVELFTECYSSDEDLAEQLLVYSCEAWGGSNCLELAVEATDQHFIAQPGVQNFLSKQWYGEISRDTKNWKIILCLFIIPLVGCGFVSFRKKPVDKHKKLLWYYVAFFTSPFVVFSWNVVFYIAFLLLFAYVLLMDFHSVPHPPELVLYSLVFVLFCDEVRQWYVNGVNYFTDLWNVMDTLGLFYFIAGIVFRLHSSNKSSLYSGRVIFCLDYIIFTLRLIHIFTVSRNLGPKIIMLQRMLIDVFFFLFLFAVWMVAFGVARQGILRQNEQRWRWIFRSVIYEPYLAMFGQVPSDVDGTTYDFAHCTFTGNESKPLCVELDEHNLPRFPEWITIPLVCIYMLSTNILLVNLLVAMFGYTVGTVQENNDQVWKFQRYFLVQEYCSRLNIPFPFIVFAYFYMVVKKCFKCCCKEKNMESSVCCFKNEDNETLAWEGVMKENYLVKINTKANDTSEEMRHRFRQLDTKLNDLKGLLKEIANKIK
T1 sequence (F1SM15 1-1104): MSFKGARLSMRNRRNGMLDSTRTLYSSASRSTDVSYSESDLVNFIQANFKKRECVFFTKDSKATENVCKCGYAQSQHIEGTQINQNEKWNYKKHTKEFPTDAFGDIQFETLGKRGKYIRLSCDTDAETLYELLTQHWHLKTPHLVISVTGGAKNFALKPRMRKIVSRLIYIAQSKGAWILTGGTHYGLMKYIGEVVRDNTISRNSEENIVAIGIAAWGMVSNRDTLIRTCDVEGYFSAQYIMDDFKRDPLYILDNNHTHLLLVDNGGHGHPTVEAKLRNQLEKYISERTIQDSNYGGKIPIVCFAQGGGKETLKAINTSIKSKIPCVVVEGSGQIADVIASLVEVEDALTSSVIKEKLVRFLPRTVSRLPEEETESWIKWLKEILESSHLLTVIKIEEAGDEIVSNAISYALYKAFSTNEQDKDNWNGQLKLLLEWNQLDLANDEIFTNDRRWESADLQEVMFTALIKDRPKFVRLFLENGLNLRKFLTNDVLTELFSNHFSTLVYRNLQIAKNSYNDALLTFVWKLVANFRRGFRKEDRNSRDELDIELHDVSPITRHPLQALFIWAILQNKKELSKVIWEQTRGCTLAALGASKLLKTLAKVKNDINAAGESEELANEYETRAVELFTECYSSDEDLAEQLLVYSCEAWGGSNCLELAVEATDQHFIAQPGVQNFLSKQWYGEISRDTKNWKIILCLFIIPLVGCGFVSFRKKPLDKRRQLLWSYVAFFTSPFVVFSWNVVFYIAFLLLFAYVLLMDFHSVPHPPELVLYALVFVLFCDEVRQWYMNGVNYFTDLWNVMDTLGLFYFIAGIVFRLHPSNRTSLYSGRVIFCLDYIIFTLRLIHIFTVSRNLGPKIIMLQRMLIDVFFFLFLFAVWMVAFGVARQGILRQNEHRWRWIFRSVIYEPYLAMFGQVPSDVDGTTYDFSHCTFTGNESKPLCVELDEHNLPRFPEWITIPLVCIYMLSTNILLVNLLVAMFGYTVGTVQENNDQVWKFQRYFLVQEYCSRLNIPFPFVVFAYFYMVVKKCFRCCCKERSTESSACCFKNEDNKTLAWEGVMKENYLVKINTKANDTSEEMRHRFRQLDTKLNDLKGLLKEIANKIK

Structure (SMILES) | EC50 (pig TRPM8) [µM] | EC50 (human TRPM8) [µM]
CC(C)[C@@H]1CC[C@@H](C)C[C@@]1(O)C(=O)NCC(=O)c1c[nH]c2ccccc12 [Example 150, (1S,2S,5R)-1-hydroxy-N-[2-(1H-indol-3-yl)-2-oxo-ethyl]-2-isopropyl-5-methyl-cyclohexanecarboxamide] | 0.004 | 0.004
CC(C)[C@@H]1CC[C@@H](C)C[C@@]1(O)C(=O)NCCc1cc(O)ccc1Br [Example 172, (1S,2S,5R)-N-[2-(2-bromo-5-hydroxy-phenyl)ethyl]-1-hydroxy-2-isopropyl-5-methyl-cyclohexanecarboxamide] | 0.019 | 0.0097
CC(C)[C@@H]1CC[C@@H](C)C[C@@]1(O)C(=O)NCCc1cccc(S(N)(=O)=O)c1 [Example 133, (1S,2S,5R)-1-hydroxy-2-isopropyl-5-methyl-N-[2-(3-sulfamoylphenyl)ethyl]cyclohexanecarboxamide] | 0.0722 | 0.14
COc1cc(CCNC(=O)[C@]2(O)C[C@H](C)CC[C@H]2C(C)C)cc(OC)c1 [Example 123, (1S,2S,5R)-N-[2-(3,5-dimethoxyphenyl)ethyl]-1-hydroxy-2-isopropyl-5-methyl-cyclohexanecarboxamide] | 0.229 | 0.334
CC(C)[C@@H]1CC[C@@H](C)C[C@@]1(O)C(=O)NCC(=O)c1ccc(O)cc1O [Example 102, (1S,2S,5R)—N-(2-(2,4-dihydroxyphenyl)-2-oxoethyl)-1-hydroxy-2-isopropyl-5-methylcyclohexane-1-carboxamide] | 0.069 | 0.042
COc1ccc(C(=O)CNC(=O)[C@]2(O)C[C@H](C)CC[C@H]2C(C)C)c(OC)c1 [Example 99, (1S,2S,5R)—N-(2-(2,4-dimethoxyphenyl)-2-oxoethyl)-1-hydroxy-2-isopropyl-5-methylcyclohexane-1-carboxamide] | 0.0991 | 0.11
COCCOCCOCCOc1cccc(CCNC(=O)[C@]2(O)C[C@H](C)CC[C@H]2C(C)C)c1 [Example 185, (1S,2S,5R)-1-hydroxy-2-isopropyl-N-[2-[3-[2-[2-(2-methoxyethoxy)ethoxy]ethoxy]phenyl]ethyl]-5-methyl-cyclohexanecarboxamide] | 0.0681 | 0.11
Cc1[nH]c2ccccc2c1CCNC(=O)[C@]1(O)C[C@H](C)CC[C@H]1C(C)C [Example 153, (1S,2S,5R)-1-hydroxy-2-isopropyl-5-methyl-N-[2-(2-methyl-1H-indol-3-yl)ethyl]cyclohexanecarboxamide] | 0.076 | 0.13
CC(C)[C@@H]1CC[C@@H](C)C[C@@]1(O)C(=O)NCC(=O)c1ccc(Cl)cc1Cl [Example 137, (1S,2S,5R)-N-[2-(2,4-dichlorophenyl)-2-oxo-ethyl]-1-hydroxy-2-isopropyl-5-methyl-cyclohexanecarboxamide] | 0.0416 | 0.125

More lines, now with the values ahead:

EC50 (pig TRPM8) [µM] | EC50 (human TRPM8) [µM] | Structure (SMILES)
0.0292 | 0.0111 | CC(C)[C@@H]1CC[C@@H](C)C[C@@]1(O)C(=O)NCC1OCCc2ccccc21 (single isomer, unassigned) [Example 97]
0.0052 | 0.019 | [2H]C(O)(CNC(=O)[C@]1(O)C[C@H](C)CC[C@H]1C(C)C)c1ccccc1 (single isomer, unassigned) [Example 91]
0.0047 | 0.0084 | CC(C)[C@@H]1CC[C@@H](C)C[C@@]1(O)C(=O)NCC(O)c1ccccc1F (stereo partly drawn) [Example 157, (1S,2S,5R)-N-[2-(2-fluorophenyl)-2-hydroxy-ethyl]-1-hydroxy-2-isopropyl-5-methyl-cyclohexanecarboxamide]
0.242 | 0.757 | CC(C)[C@@H]1CC[C@@H](C)C[C@@]1(O)C(=O)NCC1OC(=O)c2ccccc21 (mixture of isomers) [Example 18, (1S,2S,5R)-1-hydroxy-2-isopropyl-5-methyl-N-(((1RS)-3-oxo-1,3-dihydroisobenzofuran-1-yl)methyl) cyclohexane-1-carboxamide]
